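Test compounds were applied to cells in 96-well plates for 48 hours at 5 doses. TGI marks complete inhibition of growth.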
Experiments:
Assay in all cases: NCI anticancer screen, dose series, 48 h
SK-MEL-28 melanoma = tested on: SK-MEL-28 melanoma
NCI-H460 lung = tested on: NCI-H460 lung
MDA-MB-435 = tested on: MDA-MB-435
U251 CNS = tested on: U251 CNS
UACC-62 melanoma = tested on: UACC-62 melanoma
OVCAR-4 ovarian = tested on: OVCAR-4 ovarian
ACHN renal = tested on: ACHN renal
MOLT-4 leukemia = tested on: MOLT-4 leukemia
A549 NSCLC = tested on: A549 NSCLC
NCI/ADR-RES ovarian = tested on: NCI/ADR-RES ovarian
MCF7 breast = tested on: MCF7 breast
HOP-92 NSCLC = tested on: HOP-92 NSCLC
SK-MEL-5 melanoma = tested on: SK-MEL-5 melanoma
HL-60(TB) leukemia = tested on: HL-60(TB) leukemia
RXF 393 renal = tested on: RXF 393 renal
SK-MEL-2 melanoma = tested on: SK-MEL-2 melanoma
786-0 renal = tested on: 786-0 renal
RPMI-8226 leukemia = tested on: RPMI-8226 leukemia
M14 melanoma = tested on: M14 melanoma
CAKI-1 renal = tested on: CAKI-1 renal
SF-268 CNS = tested on: SF-268 CNS
NCI-H23 lung = tested on: NCI-H23 lung
HOP-62 NSCLC = tested on: HOP-62 NSCLC
T-47D breast = tested on: T-47D breast
K-562 leukemia = tested on: K-562 leukemia
COLO 205 colon = tested on: COLO 205 colon
IGROV1 ovarian = tested on: IGROV1 ovarian
CCRF-CEM leukemia = tested on: CCRF-CEM leukemia
SW-620 colon = tested on: SW-620 colon
MALME-3M melanoma = tested on: MALME-3M melanoma
SNB-75 CNS = tested on: SNB-75 CNS
SR leukemia = tested on: SR leukemia
SK-OV-3 ovarian = tested on: SK-OV-3 ovarian
TK-10 renal = tested on: TK-10 renal
NCI-H226 lung = tested on: NCI-H226 lung
PC-3 prostate = tested on: PC-3 prostate
UACC-257 melanoma = tested on: UACC-257 melanoma
MDA-MB-231 breast = tested on: MDA-MB-231 breast
HCC-2998 colon = tested on: HCC-2998 colon
LOX IMVI melanoma = tested on: LOX IMVI melanoma
UO-31 renal = tested on: UO-31 renal
OVCAR-8 ovarian = tested on: OVCAR-8 ovarian
SF-539 CNS = tested on: SF-539 CNS
EKVX NSCLC = tested on: EKVX NSCLC
HS 578T breast = tested on: HS 578T breast
SN12C renal = tested on: SN12C renal
KM12 colon = tested on: KM12 colon
OVCAR-3 ovarian = tested on: OVCAR-3 ovarian
SNB-19 CNS = tested on: SNB-19 CNS
SF-295 CNS = tested on: SF-295 CNS
HCT-15 colon = tested on: HCT-15 colon
HCT-116 colon = tested on: HCT-116 colon
NCI-H522 lung = tested on: NCI-H522 lung
HT29 colon = tested on: HT29 colon
A498 renal = tested on: A498 renal
DU-145 prostate = tested on: DU-145 prostate

Measured: TGI

C=CCN1C(=O)CS/C1=N/NC(=O)C(O)(c1ccccc1)c1ccccc1
not listed: TK-10 renal | NCI-H226 lung | PC-3 prostate | UACC-257 melanoma | MDA-MB-231 breast | HCC-2998 colon | LOX IMVI melanoma | UO-31 renal | OVCAR-8 ovarian | SF-539 CNS | EKVX NSCLC | HS 578T breast | SN12C renal | KM12 colon | OVCAR-3 ovarian | SNB-19 CNS | SF-295 CNS | HCT-15 colon | HCT-116 colon | NCI-H522 lung | HT29 colon | A498 renal | DU-145 prostate
> 10 µM: all other assays above

NCCN1CC2CCC(CC2)C1
not listed: HOP-92 NSCLC
> 10 µM: all other assays above

From PubChem BioAssay (NCI)
